Experimental data published in US7524834B2, “Sterile powders, formulations, and methods for producing the same” (AstraZeneca AB, priority 1997, dated 2009).

What was measured:
[1] = test system: Bacillus subtilis (globigii) spores; assay: Heat sterilization at 110° C. of powder inoculated with spore suspension (Example 2); conditions: for Spore population, After / Spore population, Before: 0.5 g sample; for Spore population, After: after 110° C. for 3 hours and 10 min; for Spore population, Before: before heat treatment; for Spore log reduction: 110° C. for 3 hours and 10 min
Procedure: Samples of 0.5 g of budesonide and of 0.5 g of calcium stearate were each inoculated with 0.1 ml of a Steris Bacillus subtilis (globigii) (Lot#LG126B) spore suspension containing 1.5×10^7 spores. Each sample was subjected to a temperature of 110° C. for 3 hours and 10 min in a Baxter Constant Temperature Oven using the same technique as in Example 1. The spore population of the samples was measured and the results obtained are shown below in Table 2.

[2] = test system: Bacillus subtilis spores; assay: Spore kill kinetics in inoculated micronized budesonide at 100, 110, 120° C., pour plate (Example 6)
Procedure: 5 g of micronized budesonide was inoculated with approximately 2 ml of a spore suspension of Bacillus subtilis.
The substance and the spore suspension were mixed and dried for approximately 3 hours at 55° C. The inoculated and dried budesonide was mixed with 20-40 g of non-inoculated micronized budesonide.
5 g portions of this sample were heat treated at 100° C., 110° C. or 120° C. in a Heraeus ST 5060 heating apparatus. A 1 g sample was withdrawn after various heating times at the respective heating temperatures. Each such 1 g sample was transferred to 10 ml of dilution medium pH 7.2. Appropriate dilutions were made in 0.1% Peptone Aqueous solution and the number of spores/g were determined by a pour plate technique according to US Pharmacopoeia 23/NF18, 1995, pp. 1681-1686, especially p. 1684.
The number of spores before heat treatment were determined in samples heated at 80° C. for 10 min in order to kill the vegetative cells.
The results are shown in Table 6. where the DT value is the amount of time in minutes required to obtain a log 1 reduction in the number of spores before and after heat treatment at the temperature T (in ° C.).

[3] = test system: spore suspension; assay: Decimal reduction time of spores in inoculated glucocorticosteroids at 110° C. (Example 7); conditions: for D110 value: Heating at 110° C., spore suspension different from Example 6
Procedure: 1 g of micronized budesonide, prednisolone and beclomethasone dipropionate and 0.5 g of rofleponide were inoculated with a different spore suspension to the one used in Example 6.
The samples were heat treated at 110° C. A sample was withdrawn after various heating times. The number of spores/g were determined by a pour plate technique according to US Pharmacopoeia 23/NF18, 1995, pp. 1681-1686, especially p. 1684.
From the number of spores before and after heat treatment the log reduction of spores and decimal reduction time (time needed at a specified temperature to reduce the number of microorganisms with one log) was calculated.

[4] = test system: A. niger; assay: Heat resistance of microorganisms inoculated on budesonide powder (Example 3)
Procedure: (§1) Tests were performed to evaluate the heat resistance of various naturally occurring microorganisms.
(§2) Samples of 0.5 g of budesonide powder were each inoculated with approximately 10^2-10^3 viable ATCC microorganisms in 120 ml open-ended polypropylene container. Each sample was subjected to a temperature of 110° C. for 3 hours and 10 min. The microorganism population of the samples was measured before and after heat treatment and the results obtained are shown below in Table 3.

[5] = test system: C. sporegenes; assay: as above
Procedure: as §1, §2

[6] = test system: Ps. Aeruginosa; assay: as above
Procedure: as §1, §2

[7] = test system: Salmonella typhi; assay: as above
Procedure: as §1, §2

[8] = test system: S. epidermidis; assay: as above
Procedure: as §1, §2

[9] = test system: M. luteus; assay: as above
Procedure: as §1, §2

[10] = test system: C. albicans; assay: as above
Procedure: as §1, §2

[11] = test system: E. coli; assay: as above
Procedure: as §1, §2

[12] = test system: B. subtilis ATCC 6633; assay: as above; conditions: for Microorganism population, After: after 110° C. for 3 hours and 10 min; for Microorganism population, Before: before heat treatment
Procedure: as §1, §2

[13] = 100° C. series, before heat treatment (80° C. 10 min)
[14] = 110° C. series, before heat treatment (80° C. 10 min)
[15] = 120° C. series, before heat treatment (80° C. 10 min)
[16] = after 110° C. for 3 hours and 10 min
[17] = B. subtilis ATCC 6633, low inoculum

In the case of calcium stearate, the “Spore population, After” value [1] is reported as 3.3 × 10^6 spores, the “Spore population, Before” value [1] is reported as 1.5 × 10^7 spores and the Spore log reduction [1] is reported as “less than 0.7”.
With CCCC1O[C@@H]2C[C@H]3[C@@H]4CCC5=CC(=O)C=C[C@]5(C)[C@H]4[C@@H](O)C[C@]3(C)[C@]2(C(=O)CO)O1 (stereo partly shown) [Budesonide, budesonide] the “D100 (time for log 1 reduction in number of spores)” value ([2]; 100° C.) was “D100 = 41.5 min; correlation coefficient = −0.0996 This means that it takes 6 × 41.5 minutes to obtain a log 6 reduction in the number of spores at a temperature of 100 °C”, the log spores/g [2, 13] was 6.81 and the spores/g [2, 13] was 6.5 × 10^6 spores/g. The log spores/g ([2]; 100° C., 15 min) was 3.68, the spores/g ([2]; 100° C., 15 min) was 4.8 × 10^3 spores/g and the log spores/g ([2]; 100° C., 45 min) was 2.85. The spores/g ([2]; 100° C., 45 min) was 7.1 × 10^2 spores/g, the log spores/g ([2]; 100° C., 75 min) was 2.23 and the spores/g ([2]; 100° C., 75 min) was 1.7 × 10^2 spores/g. The “D110 (time for log 1 reduction in number of spores)” value ([2]; 110° C.) was “D110 = 8.3 min; correlation coefficient = −0.995 This means that it takes 6 × 8.3 minutes to obtain a log 6 reduction in the number of spores at a temperature of 110 °C”, the log spores/g [2, 14] was 6.20 and the spores/g [2, 14] was 2 × 10^6 spores/g. For the same compound, the log spores/g ([2]; 110° C., 5 min) was 4.32, the spores/g ([2]; 110° C., 5 min) was 2.08 × 10^4 spores/g and the log spores/g ([2]; 110° C., 15 min) was 2.97. For the same compound, the spores/g ([2]; 110° C., 15 min) was 9.25 × 10^2 spores/g, the log spores/g ([2]; 110° C., 20 min) was 2.55 and the spores/g ([2]; 110° C., 20 min) was 3.55 × 10^2 spores/g. For the same compound, the “D120 (time for log 1 reduction in number of spores)” value ([2]; 120° C.) was “D120 = 4.1 min; correlation coefficient = −0.998 This means that it takes 6 × 4.1 minutes to obtain a log reduction in the number of spores at a temperature of 120 °C”, the log spores/g [2, 15] was 6.19 and the spores/g [2, 15] was 1.5 × 10^6 spores/g. For the same compound, the log spores/g ([2]; 120° C., 4 min) was 2.28, the spores/g ([2]; 120° C., 4 min) was 1.9 × 10^2 spores/g and the log spores/g ([2]; 120° C., 6 min) was 1.74. The spores/g ([2]; 120° C., 6 min) was 5.5 × 10^1 spores/g, the log spores/g ([2]; 120° C., 8 min) was 1.30 and the spores/g ([2]; 120° C., 8 min) was 2 × 10^1 spores/g. For the same compound, the “D110 value” [3] was 41 min, the “Microorganism population, After” value [4, 16] was 0 and the “Microorganism population, Before” value ([4]; before heat treatment) was 260. For the same compound, the “Microorganism population, After” value [5, 16] was 0, the “Microorganism population, Before” value ([5]; before heat treatment) was 160 and the “Microorganism population, After” value [6, 16] was 0. The “Microorganism population, Before” value ([6]; before heat treatment) was 350, the “Microorganism population, After” value [7, 16] was 0 and the “Microorganism population, Before” value ([7]; before heat treatment) was 270. For the same compound, the “Microorganism population, After” value [8, 16] was 0, the “Microorganism population, Before” value ([8]; before heat treatment) was 240 and the “Microorganism population, After” value [9, 16] was 0. For the same compound, the “Microorganism population, Before” value ([9]; before heat treatment) was 300, the “Microorganism population, After” value [10, 16] was 0 and the “Microorganism population, Before” value ([10]; before heat treatment) was 780. For the same compound, the “Microorganism population, After” value [11, 16] was 0, the “Microorganism population, Before” value ([11]; before heat treatment) was 450 and the “Microorganism population, After” value ([12]; B. subtilis ATCC 6633, high inoculum, singular bacillus species in 10^0 dilution plate) was 1^1. The “Microorganism population, Before” value ([12]; B. subtilis ATCC 6633, high inoculum) was 1.2 × 10^5, the “Microorganism population, After” value [12, 17] was 0 and the “Microorganism population, Before” value [12, 17] was 300. The “Spore population, After” value [1] was less than 10 spores, the “Spore population, Before” value [1] was 1.5 × 10^7 spores and the Spore log reduction [1] was “greater than 6.2”.
With CCC[C@@H]1O[C@@H]2C[C@H]3[C@@H]4C[C@H](F)C5=CC(=O)CC[C@]5(C)[C@@]4(F)[C@@H](O)C[C@]3(C)[C@]2(C(=O)CO)O1 [Rofleponide, rofleponide] the “D110 value” [3] was 9.8 min and the Spore kill ([3]; full 1.0 g sample, cycle times ≧5 minutes at 110° C., D110 could not be calculated) was “total kill”.
For CCC(=O)OCC(=O)[C@@]1(OC(=O)CC)[C@@H](C)C[C@H]2[C@@H]3CCC4=CC(=O)C=C[C@]4(C)[C@@]3(Cl)[C@@H](O)C[C@@]21C [Beclomethasone dipropionate, beclomethasone dipropionate], the “D110 value” [3] was 72.7 min.
With C[C@]12C=CC(=O)C=C1CC[C@@H]1[C@@H]2[C@@H](O)C[C@@]2(C)[C@H]1CC[C@]2(O)C(=O)CO [Prednisolone, prednisolone] the “D110 value” [3] was 73.8 min.
